From ChEMBL document CHEMBL4813994, “Discovery of novel and potent PARP/PI3K dual inhibitors for the treatment of cancer” (Eur J Med Chem, 2021)

How the values were obtained:
[1] = molecular target: Phosphatidylinositol 4,5-bisphosphate 3-kinase catalytic subunit beta isoform (Homo sapiens, UniProt P42338); assay: Inhibition of PI3Kbeta (unknown origin) using PIP2 as substrate measured after 1 hr by ADP-glo plus luminescence assay
[2] = molecular target: Poly [ADP-ribose] polymerase 2 (Homo sapiens, UniProt Q9UGN5); assay: Inhibition of PARP2 (unknown origin) using biotin-NAD+ as substrate incubated for 1 hr by ELISA
Chain of Poly [ADP-ribose] polymerase 2 (Q9UGN5 whole entry): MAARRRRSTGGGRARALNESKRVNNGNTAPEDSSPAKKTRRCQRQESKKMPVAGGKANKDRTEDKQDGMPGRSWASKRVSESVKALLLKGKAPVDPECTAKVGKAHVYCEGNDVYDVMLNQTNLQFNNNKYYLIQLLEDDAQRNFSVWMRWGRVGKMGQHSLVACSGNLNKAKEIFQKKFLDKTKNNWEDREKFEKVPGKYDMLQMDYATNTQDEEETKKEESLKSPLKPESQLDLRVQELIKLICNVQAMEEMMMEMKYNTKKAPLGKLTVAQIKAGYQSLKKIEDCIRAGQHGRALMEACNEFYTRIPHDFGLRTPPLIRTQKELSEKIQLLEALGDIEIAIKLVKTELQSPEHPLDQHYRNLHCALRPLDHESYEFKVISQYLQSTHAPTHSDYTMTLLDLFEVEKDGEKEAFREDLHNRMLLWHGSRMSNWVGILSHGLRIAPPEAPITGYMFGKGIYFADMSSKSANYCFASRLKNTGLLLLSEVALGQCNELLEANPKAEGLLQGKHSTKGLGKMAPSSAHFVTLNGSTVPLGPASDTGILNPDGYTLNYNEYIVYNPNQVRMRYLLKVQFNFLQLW

[3] = molecular target: Serine/threonine-protein kinase mTOR (Homo sapiens, UniProt P42345); assay: Inhibition of mTOR (unknown origin)
[4] = molecular target: T1, Phosphatidylinositol 4,5-bisphosphate 3-kinase catalytic subunit delta isoform (Homo sapiens, UniProt O00329); assay: Inhibition of PI3Kdelta (unknown origin) using PIP2 as substrate measured after 2 hrs by ADP-glo plus luminescence assay
T1 sequence (O00329 whole entry): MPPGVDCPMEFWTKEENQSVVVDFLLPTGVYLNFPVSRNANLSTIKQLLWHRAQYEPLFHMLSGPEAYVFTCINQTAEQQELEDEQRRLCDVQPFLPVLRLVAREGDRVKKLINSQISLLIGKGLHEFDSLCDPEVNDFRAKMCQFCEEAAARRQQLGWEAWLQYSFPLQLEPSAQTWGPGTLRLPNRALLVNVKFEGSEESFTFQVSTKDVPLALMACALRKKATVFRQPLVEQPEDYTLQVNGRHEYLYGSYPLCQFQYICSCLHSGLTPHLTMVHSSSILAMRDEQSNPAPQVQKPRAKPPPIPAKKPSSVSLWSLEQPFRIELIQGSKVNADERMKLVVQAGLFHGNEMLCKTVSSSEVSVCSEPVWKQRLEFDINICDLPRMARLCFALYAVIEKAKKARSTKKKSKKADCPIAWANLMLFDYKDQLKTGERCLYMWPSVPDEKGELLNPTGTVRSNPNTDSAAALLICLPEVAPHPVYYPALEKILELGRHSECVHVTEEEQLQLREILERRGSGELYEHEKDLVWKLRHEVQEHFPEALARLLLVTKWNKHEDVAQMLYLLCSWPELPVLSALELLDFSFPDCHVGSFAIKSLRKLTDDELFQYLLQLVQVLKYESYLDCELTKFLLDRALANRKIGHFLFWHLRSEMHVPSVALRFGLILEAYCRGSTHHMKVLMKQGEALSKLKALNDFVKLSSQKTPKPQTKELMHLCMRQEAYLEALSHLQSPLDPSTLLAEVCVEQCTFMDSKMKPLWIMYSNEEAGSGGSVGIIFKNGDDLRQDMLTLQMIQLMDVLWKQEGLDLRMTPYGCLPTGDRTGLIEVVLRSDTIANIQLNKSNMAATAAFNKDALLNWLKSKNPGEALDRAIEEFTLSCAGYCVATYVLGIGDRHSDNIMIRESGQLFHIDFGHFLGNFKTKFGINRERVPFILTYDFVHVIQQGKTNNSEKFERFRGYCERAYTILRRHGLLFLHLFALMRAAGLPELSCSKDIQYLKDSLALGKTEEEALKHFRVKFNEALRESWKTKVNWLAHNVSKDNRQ

[5] = molecular target: Phosphatidylinositol 4,5-bisphosphate 3-kinase catalytic subunit alpha isoform (Homo sapiens, UniProt P42336); assay: Inhibition of PI3Kalpha (unknown origin) using PIP2 as substrate measured after 40 mins by ADP-glo plus luminescence assay
Chain of Phosphatidylinositol 4,5-bisphosphate 3-kinase catalytic subunit alpha isoform (P42336 whole entry, canonical isoform): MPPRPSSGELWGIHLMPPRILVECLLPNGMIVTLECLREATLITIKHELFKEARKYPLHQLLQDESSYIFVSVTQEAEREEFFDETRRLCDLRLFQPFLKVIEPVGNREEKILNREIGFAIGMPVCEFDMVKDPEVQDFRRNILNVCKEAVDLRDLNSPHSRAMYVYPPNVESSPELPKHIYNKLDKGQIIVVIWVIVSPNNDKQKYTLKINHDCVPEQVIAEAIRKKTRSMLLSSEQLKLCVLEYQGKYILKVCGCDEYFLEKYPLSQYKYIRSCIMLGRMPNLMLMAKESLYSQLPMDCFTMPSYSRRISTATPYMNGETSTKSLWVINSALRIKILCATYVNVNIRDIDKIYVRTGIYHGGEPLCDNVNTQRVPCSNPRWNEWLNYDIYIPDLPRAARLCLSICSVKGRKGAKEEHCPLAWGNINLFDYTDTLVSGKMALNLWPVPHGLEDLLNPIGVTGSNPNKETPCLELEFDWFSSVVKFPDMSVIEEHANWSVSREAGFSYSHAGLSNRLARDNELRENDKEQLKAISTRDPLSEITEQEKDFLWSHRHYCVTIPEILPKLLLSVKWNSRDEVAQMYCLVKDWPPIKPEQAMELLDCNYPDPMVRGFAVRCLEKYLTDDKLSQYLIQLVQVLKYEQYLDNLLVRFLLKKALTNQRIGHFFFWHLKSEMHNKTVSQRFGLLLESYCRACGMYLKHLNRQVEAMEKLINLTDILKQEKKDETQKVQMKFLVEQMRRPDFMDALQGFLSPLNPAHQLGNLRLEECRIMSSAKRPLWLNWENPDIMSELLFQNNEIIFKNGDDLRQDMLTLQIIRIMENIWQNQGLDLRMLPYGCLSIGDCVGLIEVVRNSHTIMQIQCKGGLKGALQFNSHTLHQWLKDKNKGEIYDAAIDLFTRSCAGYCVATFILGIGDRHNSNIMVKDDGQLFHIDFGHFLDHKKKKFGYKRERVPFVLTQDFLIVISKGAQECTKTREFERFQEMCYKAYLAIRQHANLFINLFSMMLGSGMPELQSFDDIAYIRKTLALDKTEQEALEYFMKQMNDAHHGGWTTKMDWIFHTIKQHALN

[6] = molecular target: Phosphatidylinositol 4,5-bisphosphate 3-kinase catalytic subunit gamma isoform (Homo sapiens, UniProt P48736); assay: Inhibition of PI3Kgamma (unknown origin) using PIP2 as substrate measured after 1 hr by ADP-glo plus luminescence assay
Chain of Phosphatidylinositol 4,5-bisphosphate 3-kinase catalytic subunit gamma isoform (P48736 whole entry, canonical isoform): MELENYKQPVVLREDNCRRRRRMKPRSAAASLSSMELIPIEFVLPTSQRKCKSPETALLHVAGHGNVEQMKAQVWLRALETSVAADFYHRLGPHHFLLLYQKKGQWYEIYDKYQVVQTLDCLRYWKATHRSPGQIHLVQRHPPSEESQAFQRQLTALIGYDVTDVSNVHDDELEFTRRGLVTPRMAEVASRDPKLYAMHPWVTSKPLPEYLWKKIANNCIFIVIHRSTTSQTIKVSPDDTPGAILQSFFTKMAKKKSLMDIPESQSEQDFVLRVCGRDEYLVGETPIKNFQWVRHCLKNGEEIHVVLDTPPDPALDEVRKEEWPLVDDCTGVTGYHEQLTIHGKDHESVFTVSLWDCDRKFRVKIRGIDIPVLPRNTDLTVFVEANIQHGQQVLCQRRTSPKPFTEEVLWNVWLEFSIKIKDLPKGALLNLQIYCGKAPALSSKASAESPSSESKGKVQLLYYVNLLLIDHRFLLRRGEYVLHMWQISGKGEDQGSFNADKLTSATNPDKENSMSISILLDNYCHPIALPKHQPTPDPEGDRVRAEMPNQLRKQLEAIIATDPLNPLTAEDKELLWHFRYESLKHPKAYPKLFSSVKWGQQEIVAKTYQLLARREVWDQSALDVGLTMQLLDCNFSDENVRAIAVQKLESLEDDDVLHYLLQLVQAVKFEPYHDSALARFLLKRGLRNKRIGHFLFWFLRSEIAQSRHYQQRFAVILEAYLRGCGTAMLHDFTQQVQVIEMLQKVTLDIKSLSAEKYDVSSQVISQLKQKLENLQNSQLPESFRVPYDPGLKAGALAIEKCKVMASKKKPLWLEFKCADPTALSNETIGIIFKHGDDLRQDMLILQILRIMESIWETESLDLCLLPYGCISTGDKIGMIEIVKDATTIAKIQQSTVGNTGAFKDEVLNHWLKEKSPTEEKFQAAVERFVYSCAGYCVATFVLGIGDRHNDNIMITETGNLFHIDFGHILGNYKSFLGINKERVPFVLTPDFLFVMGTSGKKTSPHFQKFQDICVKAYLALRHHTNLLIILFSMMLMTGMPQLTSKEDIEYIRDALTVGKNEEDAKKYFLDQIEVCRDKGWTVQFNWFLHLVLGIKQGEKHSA

[7] = molecular target: Poly [ADP-ribose] polymerase 1 (Homo sapiens, UniProt P09874); assay: Inhibition of PARP1 (unknown origin) using biotin-NAD+ as substrate incubated for 1 hr by ELISA
Chain of Poly [ADP-ribose] polymerase 1 (P09874 whole entry): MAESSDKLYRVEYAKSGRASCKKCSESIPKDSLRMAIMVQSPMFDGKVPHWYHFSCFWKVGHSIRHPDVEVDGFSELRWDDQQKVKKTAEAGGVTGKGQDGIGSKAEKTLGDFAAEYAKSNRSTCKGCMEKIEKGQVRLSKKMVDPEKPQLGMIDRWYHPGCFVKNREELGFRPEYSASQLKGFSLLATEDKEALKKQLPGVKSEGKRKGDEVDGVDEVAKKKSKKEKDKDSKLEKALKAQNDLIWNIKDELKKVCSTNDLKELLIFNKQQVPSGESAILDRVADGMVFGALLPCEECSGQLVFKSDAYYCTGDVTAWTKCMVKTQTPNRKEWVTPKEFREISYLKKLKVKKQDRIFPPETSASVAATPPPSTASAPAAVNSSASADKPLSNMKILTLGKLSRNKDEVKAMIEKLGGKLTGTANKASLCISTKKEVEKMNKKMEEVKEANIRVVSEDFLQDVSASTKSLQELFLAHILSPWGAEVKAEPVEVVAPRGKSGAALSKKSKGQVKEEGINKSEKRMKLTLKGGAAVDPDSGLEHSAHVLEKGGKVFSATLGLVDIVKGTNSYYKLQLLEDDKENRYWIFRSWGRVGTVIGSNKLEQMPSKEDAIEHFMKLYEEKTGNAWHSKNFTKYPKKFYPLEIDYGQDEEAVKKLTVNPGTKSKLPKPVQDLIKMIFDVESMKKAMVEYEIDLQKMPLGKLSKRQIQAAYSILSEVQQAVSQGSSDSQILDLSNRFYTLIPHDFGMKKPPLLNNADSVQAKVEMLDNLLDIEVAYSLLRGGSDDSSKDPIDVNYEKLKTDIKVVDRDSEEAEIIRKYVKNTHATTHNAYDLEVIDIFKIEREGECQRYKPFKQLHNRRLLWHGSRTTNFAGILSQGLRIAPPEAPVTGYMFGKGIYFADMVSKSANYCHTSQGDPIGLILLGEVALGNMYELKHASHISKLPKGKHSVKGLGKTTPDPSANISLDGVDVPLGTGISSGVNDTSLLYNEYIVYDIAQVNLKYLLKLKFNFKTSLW

[8] = test system: HCC1937; assay: Antiproliferative activity against human BRCA-1 deficient HCC1937 cells assessed as reduction in cell growth incubated for 7 days by cell titer-glo assay; assay type: functional, cell-based; conditions: HCC1937, 168 h
[9] = test system: HCT-116; assay: Antiproliferative activity against human BRCA-2 deficient HCT-116 cells assessed as reduction in cell growth incubated for 7 days by cell titer-glo assay; assay type: functional, cell-based; conditions: HCT-116, 168 h
[10] = test system: SW-620; assay: Antiproliferative activity against human BRCA-2 proficient SW-620 cells assessed as reduction in cell growth incubated for 7 days by cell titer-glo assay; assay type: functional, cell-based; conditions: SW-620, 168 h
[11] = test system: MDA-MB-468; assay: Antiproliferative activity against human BRCA proficient MDA-MB-468 cells assessed as reduction in cell growth incubated for 7 days by cell titer-glo assay; assay type: functional, cell-based; conditions: MDA-MB-468, 168 h
[12] = test system: MDA-MB-231; assay: Antiproliferative activity against human BRCA proficient MDA-MB-231 cells assessed as reduction in cell growth incubated for 7 days by cell titer-glo assay; assay type: functional, cell-based; conditions: MDA-MB-231, 168 h
[13] = test system: MDA-MB-468; assay: Antitumor activity against human MDA-MB-468 cells xenografted in BALB/c mouse assessed as tumor growth inhibition at 20 mg/kg, ip once daily administered for 32 days relative to control; assay type: functional; conditions: MDA-MB-468, ip, 768 h, time 32 day, read-out: TGI
[14] = molecular target: Voltage-gated inwardly rectifying potassium channel KCNH2 (Homo sapiens, UniProt Q12809); assay: Inhibition of human ERG
[15] = molecular target: RAC-alpha serine/threonine-protein kinase (Homo sapiens, UniProt P31749); assay: Inhibition of AKT (unknown origin)
[16] = test system: MDA-MB-468; assay: Antitumor activity against human MDA-MB-468 cells xenografted in BALB/c mouse assessed as tumor growth inhibition at 50 mg/kg, ip once daily administered for 32 days relative to control; assay type: functional; conditions: time 32 day
[17] = test system: MDA-MB-468; assay: Antitumor activity against human MDA-MB-468 cells xenografted in BALB/c mouse assessed as tumor growth inhibition at 50 mg/kg, ip administered for 32 days along with GDC-0980 relative to control; assay type: functional; conditions: time 32 day
[18] = test system: MDA-MB-468; assay: Antitumor activity against human MDA-MB-468 cells xenografted in BALB/c mouse assessed as tumor growth inhibition at 27.5 mg/kg, ip once daily administered for 32 days relative to control; assay type: functional; conditions: MDA-MB-468, ip, 768 h, time 32 day, read-out: TGI
[19] = test system: MDA-MB-468; assay: Antitumor activity against human MDA-MB-468 cells xenografted in BALB/c mouse assessed as tumor growth inhibition at 27.5 mg/kg, ip administered for 32 days along with olaparib relative to control; assay type: functional; conditions: MDA-MB-468, ip, 768 h, time 32 day, read-out: TGI

Chain of Phosphatidylinositol 4,5-bisphosphate 3-kinase catalytic subunit beta isoform (P42338 whole entry, canonical isoform): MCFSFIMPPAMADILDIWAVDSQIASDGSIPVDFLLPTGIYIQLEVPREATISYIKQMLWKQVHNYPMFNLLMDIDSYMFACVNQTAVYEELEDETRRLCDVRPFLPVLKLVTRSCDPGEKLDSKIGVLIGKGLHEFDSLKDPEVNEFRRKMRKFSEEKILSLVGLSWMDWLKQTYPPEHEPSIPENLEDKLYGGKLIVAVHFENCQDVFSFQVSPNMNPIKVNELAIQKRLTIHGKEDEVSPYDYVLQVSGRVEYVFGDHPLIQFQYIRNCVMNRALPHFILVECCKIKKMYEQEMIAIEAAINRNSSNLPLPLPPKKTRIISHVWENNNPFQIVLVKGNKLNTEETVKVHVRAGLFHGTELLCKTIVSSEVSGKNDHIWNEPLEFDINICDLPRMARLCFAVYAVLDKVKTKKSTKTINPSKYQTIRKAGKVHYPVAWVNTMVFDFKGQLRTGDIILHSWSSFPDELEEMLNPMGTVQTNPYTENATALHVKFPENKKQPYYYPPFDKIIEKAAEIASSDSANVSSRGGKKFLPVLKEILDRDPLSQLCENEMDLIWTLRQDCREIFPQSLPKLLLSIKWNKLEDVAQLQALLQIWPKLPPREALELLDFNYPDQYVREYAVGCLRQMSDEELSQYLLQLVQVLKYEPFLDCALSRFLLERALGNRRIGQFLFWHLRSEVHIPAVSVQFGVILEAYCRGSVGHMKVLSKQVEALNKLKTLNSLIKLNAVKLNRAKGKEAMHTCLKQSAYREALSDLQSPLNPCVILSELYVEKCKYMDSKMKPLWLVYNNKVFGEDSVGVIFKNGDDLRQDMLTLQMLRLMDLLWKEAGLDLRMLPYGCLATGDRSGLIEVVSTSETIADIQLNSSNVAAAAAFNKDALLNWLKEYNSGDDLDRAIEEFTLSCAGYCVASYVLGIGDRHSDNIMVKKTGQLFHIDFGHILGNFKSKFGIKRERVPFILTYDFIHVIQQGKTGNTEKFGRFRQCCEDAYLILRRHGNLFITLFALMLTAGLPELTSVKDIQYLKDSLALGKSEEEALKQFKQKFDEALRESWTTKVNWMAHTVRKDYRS

Row | Structure (SMILES) | IC50 [5] [nM] | IC50 [7] [nM] | IC50 [8] [µM] | IC50 [9] [nM] | IC50 [10] [µM] | IC50 [11] [nM] | IC50 [12] [µM] | also measured
1 | Cc1c(CN2CCN(C(=O)c3cc4cccc(C(N)=O)c4o3)CC2)sc2c(N3CCOCC3)nc(-c3ccc4[nH]ccc4c3)nc12 | – | 31.7 | – | – | – | – | – | –
2 | Cc1c(CN2CCN(C(=O)c3cc4cccc(C(N)=O)c4o3)CC2)sc2c(N3CCOCC3)nc(-c3ccc(N)cc3F)nc12 | – | 40.1 | – | – | – | – | – | –
3 | Cc1c(CN2CCN(C(=O)c3cc(Cc4n[nH]c(=O)c5ccccc45)ccc3F)CC2)sc2c(N3CCOCC3)nc(-c3cnc(N)cc3C(F)(F)F)nc12 | 7 | 197 | 1.08 | 690 | 7.23 | 2650 | 3.6 | –
4 | Cc1c(CN2CCN(C(=O)c3cc4cccc(C(N)=O)c4o3)CC2)sc2c(N3CCOCC3)nc(-c3cccc4[nH]ncc34)nc12 | 168 | 42.4 | 0.8 | 890 | 3.32 | > 10000 | 3.3 | –
5 | Cc1c(CN2CCN(C(=O)c3cc4cccc(C(N)=O)c4o3)CC2)sc2c(N3CCOCC3)nc(-c3cccc4[nH]ccc34)nc12 | 1140 | 140 | – | – | – | – | – | –
6 | O=C(c1cc(Cc2n[nH]c(=O)c3ccccc23)ccc1F)N1CCN(C(=O)C2CC2)CC1 [OLAPARIB] | – | – | > 10 | > 10000 | > 10 | > 10000 | > 10 | TGI [16]: 27.91%; TGI [17]: 45.93%
7 | Cc1c(CN2CCN(C(=O)[C@H](C)O)CC2)sc2c(N3CCOCC3)nc(-c3cnc(N)nc3)nc12 [APITOLISIB] | – | – | 3.21 | 1110 | 1.72 | 1670 | 2.46 | inhibition in vivo at 27.5 mg/kg [18]: 38%; inhibition in vivo at 27.5 mg/kg [19]: 45.9%
8 | Cc1c(CN2CCN(C(=O)c3cc4cccc(C(N)=O)c4o3)CC2)sc2c(N3CCOCC3)nc(-c3cnc(N)cc3C(F)(F)F)nc12 | 2.3 | 101 | 0.5 | 690 | 3.37 | 1630 | 3.17 | –
9 | Cc1c(CN2CCN(C(=O)c3cc4cccc(C(N)=O)c4o3)CC2)sc2c(N3CCOCC3)nc(-c3ccc4cn[nH]c4c3)nc12 | 3810 | 91.5 | 3.57 | 5070 | > 10 | > 10000 | > 10 | –

Further compounds by falling IC50 [7], results first:

Row | IC50 [5] [nM] | IC50 [7] [nM] | IC50 [8] [µM] | IC50 [9] [nM] | IC50 [10] [µM] | IC50 [11] [nM] | IC50 [12] [µM] | Structure (SMILES) | also measured
10 | 319 | 22.6 | 4.58 | 3970 | 7.98 | 9260 | 7.17 | Cc1c(CN2CCN(C(=O)c3cc4cccc(C(N)=O)c4o3)CC2)sc2c(N3CCOCC3)nc(-c3ccc(N)cc3)nc12 | –
11 | 1380 | 16.7 | 5.38 | 5840 | > 10 | > 10000 | > 10 | Cc1c(CN2CCN(C(=O)c3cc4cccc(C(N)=O)c4o3)CC2)sc2c(N3CCOCC3)nc(-c3ccc(F)c(N)c3)nc12 | –
12 | 1180 | 9.18 | 3.86 | 2320 | > 10 | > 10000 | > 10 | Cc1c(CN2CCN(C(=O)c3cc4cccc(C(N)=O)c4o3)CC2)sc2c(N3CCOCC3)nc(-c3ccc(N)c(F)c3)nc12 | –
13 | 3.7 | 8.8 | – | – | – | – | – | Nc1ncc(-c2nc(N3CCOCC3)c3sc(CN4CCN(C(=O)c5cc(Cc6n[nH]c(=O)c7ccccc67)ccc5F)CC4)cc3n2)cn1 | –
14 | 0.51 | 2.97 | – | – | – | – | – | NC(=O)c1cccc2cc(C(=O)N3CCN(Cc4cc5nc(-c6cnc(N)nc6)nc(N6CCOCC6)c5o4)CC3)oc12 | IC50 [1]: 69 nM; IC50 [2]: 1.34 nM; IC50 [3]: 216 nM; IC50 [4]: 4.3 nM; IC50 [6]: 141 nM
15 | 0.6 | 1.98 | – | – | – | – | – | NC(=O)c1cccc2cc(C(=O)N3CCN(Cc4cc5nc(-c6cnc(N)nc6)nc(N6CCOCC6)c5s4)CC3)oc12 | IC50 [1]: 11 nM; IC50 [2]: 1.19 nM; IC50 [3]: 23 nM; IC50 [4]: 1.8 nM; IC50 [6]: 31 nM
16 | 14 | 1.9 | – | – | – | – | – | Cc1c(CN2CCN(C(=O)c3cc4cccc(C(N)=O)c4o3)CC2)sc2c(N3CCOCC3)nc(-c3ccc(N)nc3)nc12 | –
17 | 2 | 1.5 | 0.41 | 310 | 0.92 | 1080 | 1.3 | Cc1c(CN2CCN(C(=O)c3cc(Cc4n[nH]c(=O)c5ccccc45)ccc3F)CC2)sc2c(N3CCOCC3)nc(-c3cnc(N)nc3)nc12 | IC50 [1]: 53 nM; IC50 [2]: 0.89 nM; inhibition in vivo at 20 mg/kg [13]: 56.4%; IC50 [3]: 50 nM; IC50 [4]: 6.8 nM; IC50 [15]: > 100 µM; IC50 [6]: 25 nM
18 | 1.5 | 0.91 | 0.29 | 280 | 0.88 | 1020 | 0.92 | Cc1c(CN2CCN(C(=O)c3cc4cccc(C(N)=O)c4o3)CC2)sc2c(N3CCOCC3)nc(-c3cnc(N)nc3)nc12 | IC50 [1]: 43 nM; IC50 [2]: 0.92 nM; inhibition in vivo at 20 mg/kg [13]: 48.8%; IC50 [3]: 12 nM; IC50 [4]: 2.7 nM; IC50 [14]: > 30 µM; IC50 [15]: > 100 µM; IC50 [6]: 73 nM
